The values below come from US11192877B2, “3-(5-hydroxy-1-oxoisoindolin-2-yl)piperidine-2,6-dione derivatives and uses thereof” (Novartis AG, priority 2018, dated 2021).

The target of one experiment is IKZF2 (Helios) (Homo sapiens, UniProt Q96SW2+Q9UKS7). As to the kind of experiment: Prolabel quantification of IKZF2 protein levels in 293GT cells. Format: cell-based. The conditions noted are these: 24 h, Pro-label assay, 293GT cells, 10 μM, read-out: IKZF2 % protein reduction at 10 μM, 24 h.
IKZF2 (Helios), sequence (Q9UKS7 whole entry): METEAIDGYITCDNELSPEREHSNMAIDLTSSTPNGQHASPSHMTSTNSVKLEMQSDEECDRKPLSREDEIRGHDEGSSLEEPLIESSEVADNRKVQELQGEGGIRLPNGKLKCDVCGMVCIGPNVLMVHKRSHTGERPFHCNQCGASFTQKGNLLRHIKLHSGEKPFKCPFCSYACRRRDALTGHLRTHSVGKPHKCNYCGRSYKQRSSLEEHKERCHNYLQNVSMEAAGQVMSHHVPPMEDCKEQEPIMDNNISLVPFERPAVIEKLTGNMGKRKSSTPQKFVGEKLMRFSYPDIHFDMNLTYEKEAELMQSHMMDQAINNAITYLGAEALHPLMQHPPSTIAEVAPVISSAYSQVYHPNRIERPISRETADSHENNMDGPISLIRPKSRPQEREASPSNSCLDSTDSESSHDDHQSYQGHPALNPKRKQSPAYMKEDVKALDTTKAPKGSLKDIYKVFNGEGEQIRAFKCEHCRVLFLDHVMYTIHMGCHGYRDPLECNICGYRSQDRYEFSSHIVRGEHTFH
IKZF2 (Helios), sequence (Q96SW2 whole entry): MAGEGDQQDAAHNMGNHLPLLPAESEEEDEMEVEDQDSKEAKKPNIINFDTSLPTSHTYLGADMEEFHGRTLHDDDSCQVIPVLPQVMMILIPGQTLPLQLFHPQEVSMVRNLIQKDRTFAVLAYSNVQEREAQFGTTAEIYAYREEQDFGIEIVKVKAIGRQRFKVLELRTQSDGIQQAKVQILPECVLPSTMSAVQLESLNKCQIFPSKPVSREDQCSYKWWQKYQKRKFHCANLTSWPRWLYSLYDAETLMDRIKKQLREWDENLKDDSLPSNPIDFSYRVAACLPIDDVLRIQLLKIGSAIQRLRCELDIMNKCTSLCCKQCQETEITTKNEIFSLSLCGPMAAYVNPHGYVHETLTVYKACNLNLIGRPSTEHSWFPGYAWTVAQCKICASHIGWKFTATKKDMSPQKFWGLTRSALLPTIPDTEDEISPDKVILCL
IKZF2 (Helios), sequence (Q16531 whole entry partner): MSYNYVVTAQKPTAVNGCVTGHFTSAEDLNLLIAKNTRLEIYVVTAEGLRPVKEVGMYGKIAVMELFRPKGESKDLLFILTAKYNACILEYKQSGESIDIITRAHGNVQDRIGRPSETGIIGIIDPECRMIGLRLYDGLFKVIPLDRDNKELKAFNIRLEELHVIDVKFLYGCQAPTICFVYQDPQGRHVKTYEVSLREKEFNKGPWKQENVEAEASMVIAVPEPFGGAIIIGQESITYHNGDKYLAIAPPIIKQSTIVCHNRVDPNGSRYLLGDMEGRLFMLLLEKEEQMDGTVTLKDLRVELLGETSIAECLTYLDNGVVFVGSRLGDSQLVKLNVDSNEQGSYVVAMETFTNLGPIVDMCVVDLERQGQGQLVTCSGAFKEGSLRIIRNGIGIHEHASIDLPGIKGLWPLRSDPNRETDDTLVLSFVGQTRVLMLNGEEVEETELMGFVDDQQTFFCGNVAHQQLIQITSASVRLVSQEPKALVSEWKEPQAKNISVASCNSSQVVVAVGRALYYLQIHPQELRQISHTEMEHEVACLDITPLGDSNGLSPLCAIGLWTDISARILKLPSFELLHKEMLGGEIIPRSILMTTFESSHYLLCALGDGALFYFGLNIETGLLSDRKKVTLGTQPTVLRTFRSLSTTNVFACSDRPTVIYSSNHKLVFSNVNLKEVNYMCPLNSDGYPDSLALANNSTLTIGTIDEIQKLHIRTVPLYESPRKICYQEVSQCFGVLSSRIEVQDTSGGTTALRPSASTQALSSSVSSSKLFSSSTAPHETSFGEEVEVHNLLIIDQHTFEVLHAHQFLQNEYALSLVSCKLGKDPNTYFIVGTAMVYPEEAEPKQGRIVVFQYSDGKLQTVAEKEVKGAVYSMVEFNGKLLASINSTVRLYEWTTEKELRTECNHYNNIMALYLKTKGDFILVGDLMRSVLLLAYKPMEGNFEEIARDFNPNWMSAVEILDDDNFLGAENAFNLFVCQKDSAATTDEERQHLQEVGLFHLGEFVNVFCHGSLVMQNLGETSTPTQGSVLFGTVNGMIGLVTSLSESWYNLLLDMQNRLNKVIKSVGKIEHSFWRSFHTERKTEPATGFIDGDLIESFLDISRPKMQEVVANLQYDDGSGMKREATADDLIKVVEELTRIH
For `CCN(CC)[C@H]1COC[C@@H]1Oc1ccc2c(c1)CN(C1CCC(=O)NC1=O)C2=O` (stereo partly drawn) [I-47, 3-(5-(((3R,4S)-4-(diethylamino)tetrahydrofuran-3-yl)oxy)-1-oxoisoindolin-2-yl)piperidine-2,6-dione], the IKZF2 % protein reduction at 10 µM is 11%.

With `CC(C)(O)CN[C@H]1CCCC[C@@H]1Oc1ccc2c(c1)CN(C1CCC(=O)NC1=O)C2=O` (stereo partly drawn) [I-93, 3-(5-(((1S,2S)-2-((2-hydroxy-2-methylpropyl)amino)cyclohexyl)oxy)-1-oxoisoindolin-2-yl)piperidine-2,6-dione], the IKZF2 % protein reduction at 10 µM amounted to 60%.

On to `N[C@H]1CCC[C@@H]1Oc1ccc2c(c1)CN(C1CCC(=O)NC1=O)C2=O` (some centres unmarked) [Cmpd I-12], for which the IKZF2 % protein reduction at 10 µM was found to be 65%.

As to `CC1(CN[C@H]2CCCCC[C@@H]2Oc2ccc3c(c2)CN(C2CCC(=O)NC2=O)C3=O)COC1` (stereo partly drawn) [I-66, 3-(5-(((1S,2S)-2-(((3-methyloxetan-3-yl)methyl)amino)cycloheptyl)oxy)-1-oxoisoindolin-2-yl)piperidine-2,6-dione], the IKZF2 % protein reduction at 10 µM was determined as 81%.

Take `CN(Cc1ccccc1)[C@H]1CCCC[C@@H]1Oc1ccc2c(c1)CN(C1CCC(=O)NC1=O)C2=O` (stereo partly drawn) [I-39, 3-(5-(((1S,2S)-2-(benzyl(methyl)amino)cyclohexyl)oxy)-1-oxoisoindolin-2-yl)piperidine-2,6-dione]: the IKZF2 % protein reduction at 10 µM worked out at 57%.

For the compound `CCOC1CN([C@H]2CCCCC[C@@H]2Oc2ccc3c(c2)CN(C2CCC(=O)NC2=O)C3=O)C1` (stereo partly drawn) [I-55, 3-(5-(((1S,2S)-2-(3-ethoxyazetidin-1-yl)cycloheptyl)oxy)-1-oxoisoindolin-2-yl)piperidine-2,6-dione], the IKZF2 % protein reduction at 10 µM came out at 91%.

Turning to `O=C1CCC(N2Cc3cc(O[C@H]4CCC[C@@H]4N4CCOCC4)ccc3C2=O)C(=O)N1` (stereo partly drawn) [I-33, 3-(5-(((1S,2S)-2-morpholinocyclopentyl)oxy)-1-oxoisoindolin-2-yl)piperidine-2,6-dione], the IKZF2 % protein reduction at 10 µM is 55%.

`CC(C)n1cc(CN[C@H]2CCCC[C@@H]2Oc2ccc3c(c2)CN(C2CCC(=O)NC2=O)C3=O)cn1` (stereo partly drawn) [I-77, 3-(5-(((1S,2S)-2-(((1-isopropyl-1H-pyrazol-4-yl)methyl)amino)cyclohexyl)oxy)-1-oxoisoindolin-2-yl)piperidine-2,6-dione]: the IKZF2 % protein reduction at 10 µM worked out at 86%.

Take `O=C1CCC(N2Cc3cc(O[C@H]4CCC[C@@H]4OCc4ccccc4)ccc3C2=O)C(=O)N1` (stereo partly drawn) [I-9, 3-(5-(((1S,2S)-2-(benzyloxy)cyclopentyl)oxy)-1-oxoisoindolin-2-yl)piperidine-2,6-dione]: the IKZF2 % protein reduction at 10 µM is 0%.

Turning to `O=C1CCC(N2Cc3cc(O[C@H]4CCCC[C@@H]4N4CC(OCC(F)F)C4)ccc3C2=O)C(=O)N1` (stereo partly drawn) [I-50, 3-(5-(((1S,2S)-2-(3-(2,2-difluoroethoxy)azetidin-1-yl)cyclohexyl)oxy)-1-oxoisoindolin-2-yl)piperidine-2,6-dione], the IKZF2 % protein reduction at 10 µM was 85%.

With `CCCN[C@H]1CCCCC[C@@H]1Oc1ccc2c(c1)CN(C1CCC(=O)NC1=O)C2=O` (stereo partly drawn) [I-62, 3-(1-oxo-5-(((1S,2S)-2-(propylamino)cycloheptyl)oxy)isoindolin-2-yl)piperidine-2,6-dione], the IKZF2 % protein reduction at 10 µM amounted to 88%.

`COc1ccc(CN[C@H]2CCCC[C@@H]2Oc2ccc3c(c2)CN(C2CCC(=O)NC2=O)C3=O)cn1` (stereo partly drawn) [I-92, 3-(5-(((1S,2S)-2-(((6-methoxypyridin-3-yl)methyl)amino)cyclohexyl)oxy)-1-oxoisoindolin-2-yl)piperidine-2,6-dione]: the IKZF2 % protein reduction at 10 µM was determined as 60%.

Turning to `COc1ccccc1OC1CN([C@H]2CCCC[C@@H]2Oc2ccc3c(c2)CN(C2CCC(=O)NC2=O)C3=O)C1` (stereo partly drawn) [I-113, 3-(5-(((1S,2S)-2-(3-(2-methoxyphenoxy)azetidin-1-yl)cyclohexyl)oxy)-1-oxoisoindolin-2-yl)piperidine-2,6-dione], the IKZF2 % protein reduction at 10 µM turned out to be 93%.

Take `CCN(CCF)[C@H]1CCC[C@@H]1Oc1ccc2c(c1)CN(C1CCC(=O)NC1=O)C2=O` (stereo partly drawn) [I-24, 3-(5-(((1S,2S)-2-(ethyl(2-fluoroethyl)amino)cyclopentyl)oxy)-1-oxoisoindolin-2-yl)piperidine-2,6-dione]: the IKZF2 % protein reduction at 10 µM was 80%.

For `O=C1CCC(N2Cc3cc(O[C@H]4CCC[C@@H]4N4CCc5ncccc5C4)ccc3C2=O)C(=O)N1` (stereo partly drawn) [I-190, 3-(5-(((1S,2S)-2-(7,8-dihydro-1,6-naphthyridin-6(5H)-yl)cyclopentyl)oxy)-1-oxoisoindolin-2-yl)piperidine-2,6-dione], the IKZF2 % protein reduction at 10 µM was 39%.

As for `CO[C@@H]1CCN(C2CCCC2Oc2ccc3c(c2)CN(C2CCC(=O)NC2=O)C3=O)C1` (single isomer, unassigned) [I-192], the IKZF2 % protein reduction at 10 µM turned out to be 77%.

With `O=C1CCC(N2Cc3cc(O[C@H]4CCC[C@@H]4N4Cc5ccncc5C4)ccc3C2=O)C(=O)N1` (stereo partly drawn) [I-196, 3-(5-(((1S,2S)-2-(1,3-dihydro-2H-pyrrolo[3,4-c]pyridin-2-yl)cyclopentyl)oxy)-1-oxoisoindolin-2-yl)piperidine-2,6-dione], the IKZF2 % protein reduction at 10 µM was determined as 68%.

Turning to `O=C1CCC(N2Cc3cc(O[C@H]4CCC[C@@H]4N4CCC5(CC4)OCCO5)ccc3C2=O)C(=O)N1` (stereo partly drawn) [I-17, 3-(5-(((1S,2S)-2-(1,4-dioxa-8-azaspiro[4.5]decan-8-yl)cyclopentyl)oxy)-1-oxoisoindolin-2-yl)piperidine-2,6-dione], the IKZF2 % protein reduction at 10 µM was determined as 80%.

Consider `O=C1CCC(N2Cc3cc(O[C@H]4CCC[C@@H]4N(CC4CC4)CC4CC4)ccc3C2=O)C(=O)N1` (stereo partly drawn) [I-31, 3-(5-(((1S,2S)-2-(bis(cyclopropylmethyl)amino)cyclopentyl)oxy)-1-oxoisoindolin-2-yl)piperidine-2,6-dione], for which the IKZF2 % protein reduction at 10 µM was found to be 90%.

For the compound `CC1(CN(CC2(C)COC2)[C@H]2CCC[C@@H]2Oc2ccc3c(c2)CN(C2CCC(=O)NC2=O)C3=O)COC1` (stereo partly drawn) [I-148, 3-(5-(((1S,2S)-2-(bis((3-methyloxetan-3-yl)methyl)amino)cyclopentyl)oxy)-1-oxoisoindolin-2-yl)piperidine-2,6-dione], the IKZF2 % protein reduction at 10 µM stood at 33%.

In the case of `O=C1CCC(N2Cc3cc(O[C@H]4CCC[C@@H]4N4CC(O)C4)ccc3C2=O)C(=O)N1` (stereo partly drawn) [I-5, 3-(5-(((1S,2S)-2-(3-hydroxyazetidin-1-yl)cyclopentyl)oxy)-1-oxoisoindolin-2-yl)piperidine-2,6-dione], the IKZF2 % protein reduction at 10 µM stood at 60%.

As to `CN(Cc1ccc(C#N)cc1)[C@H]1CCCC[C@@H]1Oc1ccc2c(c1)CN(C1CCC(=O)NC1=O)C2=O` (stereo partly drawn) [I-130, 4-((((1S,2S)-2-((2-(2,6-dioxopiperidin-3-yl)-1-oxoisoindolin-5-yl)oxy)cyclohexyl)(methyl)amino)methyl)benzonitrile], the IKZF2 % protein reduction at 10 µM came out at 50%.

With `CC1(C)CC(CN[C@H]2CCCC[C@@H]2Oc2ccc3c(c2)CN(C2CCC(=O)NC2=O)C3=O)CCO1` (stereo partly drawn) [I-107, 3-(5-(((1S,2S)-2-(((2,2-dimethyltetrahydro-2H-pyran-4-yl)methyl)amino)cyclohexyl)oxy)-1-oxoisoindolin-2-yl)piperidine-2,6-dione], the IKZF2 % protein reduction at 10 µM was 89%.

`CCN(CC1CC(C)(C#N)C1)[C@H]1CCC[C@@H]1Oc1ccc2c(c1)CN(C1CCC(=O)NC1=O)C2=O` (stereo partly drawn) [I-163, 3-((((1S,2S)-2-((2-(2,6-dioxopiperidin-3-yl)-1-oxoisoindolin-5-yl)oxy)cyclopentyl)(ethyl)amino)methyl)-1-methylcyclobutane-1-carbonitrile]: the IKZF2 % protein reduction at 10 µM turned out to be 78%.

Turning to `O=C1CCC(N2Cc3cc(O[C@H]4CCC[C@@H]4NCc4ccncc4)ccc3C2=O)C(=O)N1` (stereo partly drawn) [I-151, 3-(1-oxo-5-(((1S,2S)-2-((pyridin-4-ylmethyl)amino)cyclopentyl)oxy)isoindolin-2-yl)piperidine-2,6-dione], the IKZF2 % protein reduction at 10 µM is 53%.

Turning to `O=C1CCC(N2Cc3cc(O[C@H]4CCC[C@@H]4N4CC5CCC(C4)O5)ccc3C2=O)C(=O)N1` (stereo partly drawn) [I-18, 3-(5-(((1S,2S)-2-(8-oxa-3-azabicyclo[3.2.1]octan-3-yl)cyclopentyl)oxy)-1-oxoisoindolin-2-yl)piperidine-2,6-dione], the IKZF2 % protein reduction at 10 µM amounted to 50%.

As to `CN1CC[C@H]2CC[C@H](Oc3ccc4c(c3)CN(C3CCC(=O)NC3=O)C4=O)[C@H]21` (relative stereo) [I-3, 3-(5-(((3aR*,6S*,6aS*)-1-methyloctahydrocyclopenta[b]pyrrol-6-yl)oxy)-1-oxoisoindolin-2-yl)piperidine-2,6-dione], the IKZF2 % protein reduction at 10 µM came out at 40%.

As for `O=C1CCC(N2Cc3cc(O[C@H]4CCCC[C@@H]4NCC4COC4)ccc3C2=O)C(=O)N1` (stereo partly drawn) [I-81, 3-(5-(((1S,2S)-2-((oxetan-3-ylmethyl)amino)cyclohexyl)oxy)-1-oxoisoindolin-2-yl)piperidine-2,6-dione], the IKZF2 % protein reduction at 10 µM is 85%.

Staying with this experiment, now noted: 24 h, read-out: IKZF2 % protein reduction at 10 μM, 24 h.
With `CCN(CC)[C@H]1CCCCC[C@@H]1Oc1ccc2c(c1)CN(C1CCC(=O)NC1=O)C2=O` (stereo partly drawn) [I-59, 3-(5-(((1S,2S)-2-(diethylamino)cycloheptyl)oxy)-1-oxoisoindolin-2-yl)piperidine-2,6-dione], the IKZF2 % protein reduction at 10 µM is 39%.

As for `O=C1CCC(N2Cc3cc(O[C@H]4CCC[C@@H]4N4CCC(F)CC4)ccc3C2=O)C(=O)N1` (stereo partly drawn) [I-166, 3-(5-(((1S,2S)-2-(4-fluoropiperidin-1-yl)cyclopentyl)oxy)-1-oxoisoindolin-2-yl)piperidine-2,6-dione], the IKZF2 % protein reduction at 10 µM is 81%.

The experiment is the same for the next values; noted with them: Pro-label assay, 293GT cells, 10 μM.
As to `CCN(CC1CC(C)(C#N)C1)C1CCCC1Oc1ccc2c(c1)CN(C1CCC(=O)NC1=O)C2=O` (single isomer, unassigned) [I-165], the “IKZF2 % protein reduction at 10 μM, 24 h” value is listed as 72%.

For the compound “3-(1-oxo-5-(((1S,2S)-2-phenoxycyclohexyl)oxy)isoindolin-2-yl)piperidine-2,6-dione and 3-(1-oxo-5-(((1R,2R)-2-phenoxycyclohexyl)oxy)isoindolin-2-yl)piperidine-2,6-dione [I-19]”, the “IKZF2 % protein reduction at 10 μM, 24 h” value is 10%.
